pIC50: −log10 of the molar value.
Columns and labels:
[1] = system: panel of 33 recombinant DUB enzymes; settings: 10 μM compound; diubiquitin as substrate
Procedure: […] […] The enzymes were pre-incubated with the compounds for 30 min at room temperature at 10 μM final concentration. 0.48 μl of di-ubiquitin topoisomers were added to the reaction mixture to initiate the reaction. The reaction was sealed and incubated for 30 min at room temperature and stopped by adding TFA to a final concentration of 2% (v/v).
(§1) Mass spectrometry data was acquired on an UltrafleXtreme MALDI-TOF mass spectrometer (Bruker Daltonics) with Compass 1.3 control and processing software. The sample carrier was taught before each analysis to optimize and centre laser shooting. […] Samples were analysed in automatic mode (AutoXecute, Bruker Daltonics). […] An amount of 3,500 shots were summed up in “random walk” and with “large” smartbeam laser focus. Spectra were automatically calibrated on the ^15N-Ub m/z and processed using smoothing (Savitzky-Golay algorithm) and baseline subtraction (‘TopHat’) for reproducible peak annotation on non-resolved isotope distributions: one cycle, 0.2 m/z for the width. For area calculation, the complete isotopic distribution was taken into account. An in-house made script was used to report—^15N and mono-ubiquitin areas; plotting of graphs, calculation of standard deviation and coefficient of variation (%) were processed in Microsoft Excel.

[2] = molecular target: USP7 (Homo sapiens, UniProt Q93009); assay: MALDI TOF DUB assay with diubiquitin substrate; type: biochemical; settings: diubiquitin as substrate, same assay as USP10
Chain of USP7 (Q93009 whole entry): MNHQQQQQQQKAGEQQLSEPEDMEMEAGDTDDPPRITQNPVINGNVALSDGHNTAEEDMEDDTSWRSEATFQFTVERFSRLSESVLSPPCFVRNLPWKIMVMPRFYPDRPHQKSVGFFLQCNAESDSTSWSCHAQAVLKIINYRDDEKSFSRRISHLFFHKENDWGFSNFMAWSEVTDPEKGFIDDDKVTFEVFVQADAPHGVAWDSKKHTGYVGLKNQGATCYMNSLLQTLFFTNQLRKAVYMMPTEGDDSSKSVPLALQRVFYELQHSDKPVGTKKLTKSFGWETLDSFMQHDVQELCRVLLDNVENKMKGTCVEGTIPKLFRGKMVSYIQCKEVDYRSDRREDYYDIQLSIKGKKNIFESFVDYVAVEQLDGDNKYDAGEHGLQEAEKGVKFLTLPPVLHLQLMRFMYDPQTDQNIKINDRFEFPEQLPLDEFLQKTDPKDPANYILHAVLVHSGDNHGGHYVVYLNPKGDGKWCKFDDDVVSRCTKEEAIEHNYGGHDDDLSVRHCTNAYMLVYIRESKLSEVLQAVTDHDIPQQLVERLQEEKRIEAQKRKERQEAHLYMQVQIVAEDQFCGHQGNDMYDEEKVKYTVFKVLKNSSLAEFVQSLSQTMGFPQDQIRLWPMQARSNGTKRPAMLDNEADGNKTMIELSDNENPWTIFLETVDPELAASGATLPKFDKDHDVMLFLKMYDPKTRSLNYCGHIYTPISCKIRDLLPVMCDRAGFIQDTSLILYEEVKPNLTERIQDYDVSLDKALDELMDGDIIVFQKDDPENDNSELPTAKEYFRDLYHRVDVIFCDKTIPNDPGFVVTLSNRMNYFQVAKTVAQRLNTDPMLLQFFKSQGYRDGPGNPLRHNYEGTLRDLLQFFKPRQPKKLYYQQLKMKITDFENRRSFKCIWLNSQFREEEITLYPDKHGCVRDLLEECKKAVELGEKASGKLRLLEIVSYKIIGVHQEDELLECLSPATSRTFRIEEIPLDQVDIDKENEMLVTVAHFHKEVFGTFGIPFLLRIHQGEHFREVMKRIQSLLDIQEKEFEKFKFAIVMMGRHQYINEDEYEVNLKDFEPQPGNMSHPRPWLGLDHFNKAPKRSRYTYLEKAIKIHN
Procedure: Thirty-one human DUBs were freshly diluted in the reaction buffer (40 mM Tris-HCl, pH 7.6, 5 mM DTT, 0.005% BSA) at different concentrations (see Table 10). […] 0.48 μl of di-ubiquitin topoisomers were added to the reaction mixture to initiate the reaction. The reaction was sealed and incubated for 30 min at room temperature and stopped by adding TFA to a final concentration of 2% (v/v).
as §1

[3] = system: MOLM14 cells; assay: Immunoblot of FLT3, Beclin-1, AKT, ERK1/ERK2 in MOLM14 cells; type: cell-based, human
Excerpt: (§2) The following antibodies were purchased from Cell Signaling Technology (Danvers, Mass.): total AKT (rabbit, #9272) and total p44/42 MAPK (Erk1/2) (3A7) (mouse, #9107) were used at 1:1000 dilution. Anti-GAPDH (D16H-11) XP (R) (rabbit mAb, #5174) was used at 1:1000 dilution. Beclin-1 (rabbit, #3738) was used at 1:1000. USP10 (D7A5) (rabbit, #8501) was used at 1:1000 dilution. P53 (rabbit, #9282) was used at 1:1000 dilution. β-tubulin (rabbit, #2146s) was used 1:1000.
FLT3/Flk-2 (C-20) (sc-479) and Ub (P4D1) (mouse, sc-8017) were purchased from Santa Cruz Biotechnology, Inc. (Dallas, Tex.) and used at 1:1000 dilution for immunoblotting. Anti-pTyr (mouse, clone 4G10) was purchased from Upstate Biotechnology (Lake Placid, N.Y.) and was used at 1:1000 dilution. Anti-HAUSP/USP7 antibody (rabbit, ab4080) and anti-ubiquitin antibody (rabbit, ab7780) were purchased from Abcam (Cambridge, Mass.) and used at 1:1000 dilution.
(§3) Protein lysate preparation, immunoblotting, and immunoprecipitation were carried out as previously described in Weisberg et al. (2002) Cancer Cell 1:433-443.

[4] = system: Ba/F3-FLT3-ITD cells; assay: Proliferation of Ba/F3-FLT3-ITD cells; type: cell-based, murine
Excerpt: Nomo-1, P31-FUJ, and NB4 were obtained from Dr. Gary Gilliland. MV4, 11 cells were obtained from Dr. Anthony Letai. Hel, K562, THP, U937, TF-1 and K052 cells were purchased from the American Type Culture Collection (ATCC) (Manassas, Va., USA). […] Cell lines were submitted for cell line authentication and were authenticated within 6 months of manuscript preparation through cell line short tandem repeat (STR) profiling (DDC Medical, Fairfield, Ohio and Molecular Diagnostics Laboratory, Dana Farber Cancer Institute). […] PBMCs were generously provided by Dr. Steven Treon and Dr. Guang Yang.
The CellTiter-Glo® assay (Promega, Madison, Wis.) was used for proliferation studies and carried out according to manufacturer instructions. Cell viability is reported as percentage of control (untreated) cells, and error bars represent the standard error of the mean for each data point.

[5] = system: wt FLT3-expressing leukemia cell lines; assay: FLT3 protein in wt FLT3-expressing leukemia cell lines (immunoblot); type: cell-based, human; settings: approximately 23 hours of treatment
Procedure: as §3

[6] = molecular target: USP10 (Homo sapiens, UniProt Q14694); assay: MALDI TOF DUB assay with diubiquitin substrate; type: biochemical; settings: diubiquitin (K11) as substrate
Chain of USP10 (Q14694 whole entry): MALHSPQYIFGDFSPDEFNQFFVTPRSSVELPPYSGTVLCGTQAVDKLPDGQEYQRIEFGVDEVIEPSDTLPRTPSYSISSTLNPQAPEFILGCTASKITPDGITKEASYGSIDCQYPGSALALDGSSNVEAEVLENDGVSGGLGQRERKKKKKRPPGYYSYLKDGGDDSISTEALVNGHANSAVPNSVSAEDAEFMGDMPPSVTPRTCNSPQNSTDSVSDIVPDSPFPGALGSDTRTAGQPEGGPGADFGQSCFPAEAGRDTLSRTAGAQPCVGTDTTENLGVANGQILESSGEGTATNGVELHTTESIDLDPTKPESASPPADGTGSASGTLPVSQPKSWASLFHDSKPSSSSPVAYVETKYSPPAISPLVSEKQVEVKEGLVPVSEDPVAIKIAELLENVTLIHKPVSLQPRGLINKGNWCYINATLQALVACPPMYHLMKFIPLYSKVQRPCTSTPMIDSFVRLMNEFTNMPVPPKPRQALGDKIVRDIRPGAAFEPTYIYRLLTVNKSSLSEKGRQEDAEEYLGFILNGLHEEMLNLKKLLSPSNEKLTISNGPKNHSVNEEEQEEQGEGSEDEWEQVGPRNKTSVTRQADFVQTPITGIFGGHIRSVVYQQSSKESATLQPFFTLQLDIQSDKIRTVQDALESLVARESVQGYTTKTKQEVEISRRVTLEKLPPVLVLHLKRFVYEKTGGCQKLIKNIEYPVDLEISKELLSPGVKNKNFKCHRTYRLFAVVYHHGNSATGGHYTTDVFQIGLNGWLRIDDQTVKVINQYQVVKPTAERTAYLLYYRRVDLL
Procedure: Thirty-one human DUBs were freshly diluted in the reaction buffer (40 mM Tris-HCl, pH 7.6, 5 mM DTT, 0.005% BSA) at different concentrations (see Table 10). […] The enzymes were pre-incubated with the compounds for 30 min at room temperature at 10 μM final concentration. 0.48 μl of di-ubiquitin topoisomers were added to the reaction mixture to initiate the reaction. The reaction was sealed and incubated for 30 min at room temperature and stopped by adding TFA to a final concentration of 2% (v/v).
Mass spectrometry data was acquired on an UltrafleXtreme MALDI-TOF mass spectrometer (Bruker Daltonics) with Compass 1.3 control and processing software. The sample carrier was taught before each analysis to optimize and centre laser shooting. […] Samples were analysed in automatic mode (AutoXecute, Bruker Daltonics). […] An amount of 3,500 shots were summed up in “random walk” and with “large” smartbeam laser focus. Spectra were automatically calibrated on the ^15N-Ub m/z and processed using smoothing (Savitzky-Golay algorithm) and baseline subtraction (‘TopHat’) for reproducible peak annotation on non-resolved isotope distributions: one cycle, 0.2 m/z for the width. For area calculation, the complete isotopic distribution was taken into account. […]

[7] = system: MOLM13 and MOLM14 cells; assay: p53 levels in AML cell lines (immunoblot); type: cell-based, human
Excerpt: as §2, §3

Question: For `CN(CCCNC(=O)c1ccc2nc3c(c(Cl)c2c1)CCCC3)Cc1ccccc1` [HBX19818, reference compound], which “Inhibition of DUBs other than USP10” value [1] is on record?
Answer: Its value is at most 20%.

Question: What about the pIC50 [2] of the same compound?
Answer: Its pIC50 is 4.24.

Question: And the “Protein levels of Beclin-1 and FLT3” value ([3]; 20 μM)?
Answer: The value was “strongly decreased”.

Question: What about the “Expression of AKT and ERK1/ERK2 downstream of FLT3” value ([3]; approximately 23 hours of treatment) of the same compound?
Answer: Its value is “unchanged”.

Question: And the “Proliferation EC50” value [4]?
Answer: The value was “single digit micromolar range”.

Question: What about the FLT3 protein [5] of the same compound?
Answer: The FLT3 protein was “little to no impact”.

Question: And the pIC50 [6]?
Answer: The pIC50 was 4.85.

Question: And the p53 levels [7]?
Answer: Its p53 levels is “did not result in a decrease of p53 levels”.

Reference: patent US11136409B2, “Compositions and methods for identification, assessment, prevention, and treatment of AML using USP10 biomarkers and modulators” (Dana-Farber Cancer Institute, Inc., priority 2016, dated 2021)
